Reference: patent US20230085307A1, “PYRIDAZINONE COMPOUND AND HERBICIDE” (NISSAN CHEMICAL CORPORATION, priority 2019, published 2023)

Columns and labels:
blackgrass [1] = experiment: Test Example 5: herbicidal effect by foliage application, plastic box (Table 20, symbol J); format: in vivo, blackgrass (Alopecurus myosuroides); conditions: foliage application
Method in brief: (§1)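 Foliar spray test: emulsion formulation diluted in water to a set application rate, sprayed onto 14-day-old plants raised in diluvial soil at 25° C to 30° C under glass. Both herbicidal effect and crop effect rated visually three weeks later.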

southern crabgrass [2] = experiment: Test Example 4: herbicidal effect by soil treatment (Table 19, symbol F); format: in vivo, southern crabgrass (Digitaria ciliaris)
Method in brief: (§2)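 Herbicidal effect was rated 3 weeks after treatment, using the scoring criteria of an earlier test. The compound, formulated as an emulsion and diluted in water to a set herbicide amount, had been sprayed uniformly on soil over freshly sown seeds. Growth took place in a greenhouse at 25° C. to 30° C.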

redroot pigweed [3] = experiment: Test Example 4: herbicidal effect by soil treatment (Table 19, symbol N); format: in vivo, redroot pigweed (Amaranthus retroflexus)
Method in brief: as §2

Italian ryegrass [4] = experiment: Test Example 5: herbicidal effect by foliage application, plastic box (Table 20, symbol K); format: in vivo, Italian ryegrass (Lolium multiflorum); conditions: foliage application
Method in brief: as §1

redroot pigweed [5] = experiment: Test Example 5: herbicidal effect by foliage application, plastic box (Table 20, symbol N); format: in vivo, redroot pigweed (Amaranthus retroflexus); conditions: foliage application
Method in brief: as §1

barnyard grass [6] = experiment: Test Example 4: herbicidal effect by soil treatment (Table 19, symbol H); format: in vivo, barnyard grass (Echinochloa crus-galli)
Method in brief: as §2

southern crabgrass [7] = experiment: Test Example 5: herbicidal effect by foliage application, plastic box (Table 20, symbol F); format: in vivo, southern crabgrass (Digitaria ciliaris); conditions: foliage application
Method in brief: as §1

windgrass [8] = experiment: Test Example 4: herbicidal effect by soil treatment (Table 19, symbol L); format: in vivo, windgrass (Apera spica-venti)
Method in brief: as §2

persian speedwell [9] = experiment: Test Example 5: herbicidal effect by foliage application, plastic box (Table 20, symbol R); format: in vivo, Persian speedwell (Veronica persica); conditions: foliage application
Method in brief: as §1

wild oat [10] = experiment: Test Example 5: herbicidal effect by foliage application, plastic box (Table 20, symbol I); format: in vivo, wild oat (Avena fatua); conditions: foliage application
Method in brief: as §1

blackgrass [11] = experiment: Test Example 4: herbicidal effect by soil treatment (Table 19, symbol J); format: in vivo, blackgrass (Alopecurus myosuroides)
Method in brief: as §2

lambsquarters [12] = experiment: Test Example 5: herbicidal effect by foliage application, plastic box (Table 20, symbol O); format: in vivo, lambsquarters (Chenopodium album); conditions: foliage application
Method in brief: as §1

false cleavers = experiment: Test Example 4: herbicidal effect by soil treatment (Table 19, symbol Q); format: in vivo, false cleavers (Galium spurium)
Method in brief: as §2

chickweed [13] = experiment: Test Example 5: herbicidal effect by foliage application, plastic box (Table 20, symbol P); format: in vivo, common chickweed (Stellaria media); conditions: foliage application
Method in brief: as §1

chickweed [14] = experiment: Test Example 4: herbicidal effect by soil treatment (Table 19, symbol P); format: in vivo, common chickweed (Stellaria media)
Method in brief: as §2

velvetleaf [15] = experiment: Test Example 4: herbicidal effect by soil treatment (Table 19, symbol M); format: in vivo, velvetleaf (Abutilon theophrasti)
Method in brief: as §2

barnyard grass [16] = experiment: Test Example 5: herbicidal effect by foliage application, plastic box (Table 20, symbol H); format: in vivo, barnyard grass (Echinochloa crus-galli); conditions: foliage application
Method in brief: as §1

velvetleaf [17] = experiment: Test Example 5: herbicidal effect by foliage application, plastic box (Table 20, symbol M); format: in vivo, velvetleaf (Abutilon theophrasti); conditions: foliage application
Method in brief: as §1

green foxtail [18] = experiment: Test Example 4: herbicidal effect by soil treatment (Table 19, symbol G); format: in vivo, green foxtail (Setaria viridis)
Method in brief: as §2

Italian ryegrass [19] = experiment: Test Example 4: herbicidal effect by soil treatment (Table 19, symbol K); format: in vivo, Italian ryegrass (Lolium multiflorum)
Method in brief: as §2

green foxtail [20] = experiment: Test Example 5: herbicidal effect by foliage application, plastic box (Table 20, symbol G); format: in vivo, green foxtail (Setaria viridis); conditions: foliage application
Method in brief: as §1

lambsquarters [21] = experiment: Test Example 4: herbicidal effect by soil treatment (Table 19, symbol O); format: in vivo, lambsquarters (Chenopodium album)
Method in brief: as §2

wild oat [22] = experiment: Test Example 4: herbicidal effect by soil treatment (Table 19, symbol I); format: in vivo, wild oat (Avena fatua)
Method in brief: as §2

barnyard grass [23] = experiment: Test Example 3: herbicidal effect by foliage application, Wagner pot (Table 18, symbol H); format: in vivo, barnyard grass (Echinochloa crus-galli)
Method in brief: (§3)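 Plants were sown in alluvial soil held under 0.1–0.5 cm standing water and grown 14 days in a greenhouse at 25–30 °C. An emulsifiable formulation, water-diluted to the set dose, was then sprayed onto the foliage, and effects were scored three weeks later using previously defined criteria.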

persian speedwell [24] = experiment: Test Example 4: herbicidal effect by soil treatment (Table 19, symbol R); format: in vivo, Persian speedwell (Veronica persica)
Method in brief: as §2

rice flat sedge = experiment: Test Example 3: herbicidal effect by foliage application, Wagner pot (Table 18, symbol E); format: in vivo, rice flat sedge (Cyperus iria)
Method in brief: as §3

windgrass [25] = experiment: Test Example 5: herbicidal effect by foliage application, plastic box (Table 20, symbol L); format: in vivo, windgrass (Apera spica-venti); conditions: foliage application
Method in brief: as §1

Chinese sprangletop = experiment: Test Example 3: herbicidal effect by foliage application, Wagner pot (Table 18, symbol D); format: in vivo, chinese sprangletop (Leptochloa chinensis)
Method in brief: as §3

[26] = AAH 80 g/ha, three weeks after application
[27] = 320 g/ha, evaluated three weeks after application
[28] = amount of applied herbicide 320 g/ha

COc1ccc(-c2sc3ccccc3c2-c2c(O)c(OC)nn(C)c2=O)cc1OC [1-182]
J: blackgrass, herbicidal effect (blackgrass [1]; [26]): 0 (Herbicidal rate of 5% or less (almost no effect))
F: southern crabgrass, herbicidal effect rating (southern crabgrass [2]; AAH 80 g/ha): 1 (Herbicidal rate of 5% or more and less than 20%)
N: redroot pigweed, herbicidal effect rating (redroot pigweed [3]; AAH 80 g/ha): 5 (Herbicidal rate of 90% or more (almost completely withered))
K: Italian ryegrass, herbicidal effect (Italian ryegrass [4]; [26]): 3 (Herbicidal rate of 40% or more and less than 70%)
N: redroot pigweed, herbicidal effect (redroot pigweed [5]; [26]): 3 (Herbicidal rate of 40% or more and less than 70%)
H: barnyard grass, herbicidal effect rating (barnyard grass [6]; AAH 80 g/ha): 0 (Herbicidal rate of 5% or less (almost no effect))
F: southern crabgrass, herbicidal effect (southern crabgrass [7]; [26]): 3 (Herbicidal rate of 40% or more and less than 70%)
L: windgrass, herbicidal effect rating (windgrass [8]; AAH 80 g/ha): 0 (Herbicidal rate of 5% or less (almost no effect))
R: persian speedwell, herbicidal effect (persian speedwell [9]; [26]): 5 (Herbicidal rate of 90% or more (almost completely withered))
I: wild oat, herbicidal effect (wild oat [10]; [26]): 0 (Herbicidal rate of 5% or less (almost no effect))
J: blackgrass, herbicidal effect rating (blackgrass [11]; AAH 80 g/ha): 0 (Herbicidal rate of 5% or less (almost no effect))
O: lambsquarters, herbicidal effect (lambsquarters [12]; [26]): 5 (Herbicidal rate of 90% or more (almost completely withered))
Q: false cleavers, herbicidal effect rating (false cleavers; AAH 80 g/ha): 0 (Herbicidal rate of 5% or less (almost no effect))
P: chickweed, herbicidal effect (chickweed [13]; [26]): 5 (Herbicidal rate of 90% or more (almost completely withered))
P: chickweed, herbicidal effect rating (chickweed [14]; AAH 80 g/ha): 4 (Herbicidal rate of 70% or more and less than 90%)
M: velvetleaf, herbicidal effect rating (velvetleaf [15]; AAH 80 g/ha): 1 (Herbicidal rate of 5% or more and less than 20%)
H: barnyard grass, herbicidal effect (barnyard grass [16]; [26]): 3 (Herbicidal rate of 40% or more and less than 70%)
M: velvetleaf, herbicidal effect (velvetleaf [17]; [26]): 4 (Herbicidal rate of 70% or more and less than 90%)
G: green foxtail, herbicidal effect rating (green foxtail [18]; AAH 80 g/ha): 5 (Herbicidal rate of 90% or more (almost completely withered))
K: Italian ryegrass, herbicidal effect rating (Italian ryegrass [19]; AAH 80 g/ha): 0 (Herbicidal rate of 5% or less (almost no effect))
G: green foxtail, herbicidal effect (green foxtail [20]; [26]): 4 (Herbicidal rate of 70% or more and less than 90%)
O: lambsquarters, herbicidal effect rating (lambsquarters [21]; AAH 80 g/ha): 4 (Herbicidal rate of 70% or more and less than 90%)
I: wild oat, herbicidal effect rating (wild oat [22]; AAH 80 g/ha): 0 (Herbicidal rate of 5% or less (almost no effect))
herbicidal effect on H (barnyard grass), rating 0-5 (barnyard grass [23]; 80 g/ha): 4 (Herbicidal rate of 70% or more and less than 90%)
R: persian speedwell, herbicidal effect rating (persian speedwell [24]; AAH 80 g/ha): 5 (Herbicidal rate of 90% or more (almost completely withered))
herbicidal effect on E (rice flat sedge), rating 0-5 (rice flat sedge; 80 g/ha): 5 (Herbicidal rate of 90% or more (almost completely withered))
L: windgrass, herbicidal effect (windgrass [25]; [26]): 0 (Herbicidal rate of 5% or less (almost no effect))
herbicidal effect on D (Chinese sprangletop), rating 0-5 (Chinese sprangletop; 80 g/ha): 3 (Herbicidal rate of 40% or more and less than 70%)

CCCC(=O)Oc1c(C)nn(C)c(=O)c1-c1c(-c2ccc3c(c2)OCO3)sc2ccc(C)cc12 [2-157]
herbicidal effect on J: blackgrass (criteria 0-5) (blackgrass [1]; [27]): 0 (Herbicidal rate of 5% or less (almost no effect))
F: southern crabgrass, herbicidal effect rating (southern crabgrass [2]; [28]): 0 (Herbicidal rate of 5% or less (almost no effect))
N: redroot pigweed, herbicidal effect rating (redroot pigweed [3]; [28]): 0 (Herbicidal rate of 5% or less (almost no effect))
herbicidal effect on K: Italian ryegrass (criteria 0-5) (Italian ryegrass [4]; [27]): 0 (Herbicidal rate of 5% or less (almost no effect))
herbicidal effect on N: redroot pigweed (criteria 0-5) (redroot pigweed [5]; [27]): 3 (Herbicidal rate of 40% or more and less than 70%)
H: barnyard grass, herbicidal effect rating (barnyard grass [6]; [28]): 0 (Herbicidal rate of 5% or less (almost no effect))
herbicidal effect on F: southern crabgrass (criteria 0-5) (southern crabgrass [7]; [27]): 0 (Herbicidal rate of 5% or less (almost no effect))
L: windgrass, herbicidal effect rating (windgrass [8]; [28]): 0 (Herbicidal rate of 5% or less (almost no effect))
herbicidal effect on R: persian speedwell (criteria 0-5) (persian speedwell [9]; [27]): 4 (Herbicidal rate of 70% or more and less than 90%)
herbicidal effect on I: wild oat (criteria 0-5) (wild oat [10]; [27]): 0 (Herbicidal rate of 5% or less (almost no effect))
J: blackgrass, herbicidal effect rating (blackgrass [11]; [28]): 0 (Herbicidal rate of 5% or less (almost no effect))
herbicidal effect on O: lambsquarters (criteria 0-5) (lambsquarters [12]; [27]): 0 (Herbicidal rate of 5% or less (almost no effect))
Q: false cleavers, herbicidal effect rating (false cleavers; [28]): 0 (Herbicidal rate of 5% or less (almost no effect))
herbicidal effect on P: chickweed (criteria 0-5) (chickweed [13]; [27]): 0 (Herbicidal rate of 5% or less (almost no effect))
P: chickweed, herbicidal effect rating (chickweed [14]; [28]): 4 (Herbicidal rate of 70% or more and less than 90%)
M: velvetleaf, herbicidal effect rating (velvetleaf [15]; [28]): 0 (Herbicidal rate of 5% or less (almost no effect))
herbicidal effect on H: barnyard grass (criteria 0-5) (barnyard grass [16]; [27]): 0 (Herbicidal rate of 5% or less (almost no effect))
herbicidal effect on M: velvetleaf (criteria 0-5) (velvetleaf [17]; [27]): 0 (Herbicidal rate of 5% or less (almost no effect))
G: green foxtail, herbicidal effect rating (green foxtail [18]; [28]): 0 (Herbicidal rate of 5% or less (almost no effect))
K: Italian ryegrass, herbicidal effect rating (Italian ryegrass [19]; [28]): 0 (Herbicidal rate of 5% or less (almost no effect))
herbicidal effect on G: green foxtail (criteria 0-5) (green foxtail [20]; [27]): 0 (Herbicidal rate of 5% or less (almost no effect))
O: lambsquarters, herbicidal effect rating (lambsquarters [21]; [28]): 0 (Herbicidal rate of 5% or less (almost no effect))
I: wild oat, herbicidal effect rating (wild oat [22]; [28]): 0 (Herbicidal rate of 5% or less (almost no effect))
herbicidal effect on H: barnyard grass (barnyard grass [23]; [28]): 3 (Herbicidal rate of 40% or more and less than 70%)
R: persian speedwell, herbicidal effect rating (persian speedwell [24]; [28]): 3 (Herbicidal rate of 40% or more and less than 70%)
herbicidal effect on E: rice flat sedge (rice flat sedge; [28]): 0 (Herbicidal rate of 5% or less (almost no effect))
herbicidal effect on L: windgrass (criteria 0-5) (windgrass [25]; [27]): 0 (Herbicidal rate of 5% or less (almost no effect))
herbicidal effect on D: Chinese sprangletop (Chinese sprangletop; [28]): 0 (Herbicidal rate of 5% or less (almost no effect))
